Assay results published in patent US10696638B2, “Compounds for inhibiting AGC kinase and pharmaceutical compositions comprising the same” (Industrial Technology Research Institute, priority 2017, dated 2020).

target: ROCK2 (Homo sapiens (Human), UniProt O75116); test: Rho-kinase inhibition ELISA (ROCK active-II, MYPT1 substrate); type: biochemical; conditions: Table 1; classes given as pIC50; ATP 250 μM; read-out: ROCK2 IC50
Experimental: To measure Rho-kinase inhibition, IC50 values were determined according to the following ELISA protocol:
ROCK Substrate Coated Plate (Part No 241601): One strip well 96-well plate pre-coated with recombinant MYPT1.
Buffer: 25 mM Tris, pH 7.5, 10 mM MgCl2, 5 mM Glycerol-2-Phosphate, 0.1 mM Na3VO4; 1% DMSO; 2.5 mM DTT; (Enzyme: ROCK active-II) (Cell Biolabs, Catalog #STA-406, Part No. 241505) 0.1 ng/μl.
ATP Solution (Part No. 241604): 100 mM ATP. Final concentration of ATP in reaction mixture: 250 μM.
Secondary Antibody, HRP Conjugate (Part No. 231003).
Biotinylated substrate, diluted to 0.25 μM with buffer described above (without ATP).
1. Purified kinase or cell lysate sample can be used directly in the kinase assay or further diluted with 1× Kinase Buffer. Each sample should be assayed in duplicate.
2. Add 90 μL of the diluted active ROCK-II positive control or unknown ROCK samples to the wells of the substrate plate.
3. Initiate the kinase reaction by adding 10 μL of the 10× Kinase Reaction Buffer containing DTT and ATP. Mix well.
4. Cover with a plate cover and incubate the wells at 30° C. for 30-60 minutes with gentle agitation.
5. Stop kinase reaction by flicking out the content or by adding 50 μL of 0.5M EDTA, pH 8.0, to each well.
6. Remove the plate cover and empty wells. Wash microwell strips 3 times with 250 μL 1× Wash Buffer per well with thorough aspiration between each wash. After the last wash, empty wells and tap microwell strips on absorbent pad or paper towel to remove excess 1× Wash Buffer.
7. Add 100 μL of the diluted anti-phospho-MYPT1 (Thr696) antibody to each well.
8. Cover with the plate cover and incubate at room temperature for 1 hour on an orbital shaker.
9. Remove the plate cover and empty wells. Wash the strip wells 3 times according to step 6 above.
10. Add 100 μL of the diluted HRP-conjugated secondary antibody to each well.
11. Cover with the plate cover and incubate at room temperature for 1 hour on an orbital shaker.
12. Remove the plate cover and empty wells. Wash microwell strips 3 times according to step 6 above. Proceed immediately to the next step.
13. Warm Substrate Solution to room temperature. Add 100 μL of Substrate Solution to each well, including the blank wells. Incubate at room temperature for 5-20 minutes on an orbital shaker.
14. Stop the enzyme reaction by adding 100 μL of Stop Solution into each well, including the blank wells. Results should be read immediately (color will fade over time).
15. Read absorbance of each microwell on a spectrophotometer using 450 nm as the primary wave length.
The given activity (shown in Table 1 and Table 2) is denoted as the negative logarithm of the IC50 (pIC50) as follows: […]

Chain of ROCK2 (O75116 whole entry, species assumed): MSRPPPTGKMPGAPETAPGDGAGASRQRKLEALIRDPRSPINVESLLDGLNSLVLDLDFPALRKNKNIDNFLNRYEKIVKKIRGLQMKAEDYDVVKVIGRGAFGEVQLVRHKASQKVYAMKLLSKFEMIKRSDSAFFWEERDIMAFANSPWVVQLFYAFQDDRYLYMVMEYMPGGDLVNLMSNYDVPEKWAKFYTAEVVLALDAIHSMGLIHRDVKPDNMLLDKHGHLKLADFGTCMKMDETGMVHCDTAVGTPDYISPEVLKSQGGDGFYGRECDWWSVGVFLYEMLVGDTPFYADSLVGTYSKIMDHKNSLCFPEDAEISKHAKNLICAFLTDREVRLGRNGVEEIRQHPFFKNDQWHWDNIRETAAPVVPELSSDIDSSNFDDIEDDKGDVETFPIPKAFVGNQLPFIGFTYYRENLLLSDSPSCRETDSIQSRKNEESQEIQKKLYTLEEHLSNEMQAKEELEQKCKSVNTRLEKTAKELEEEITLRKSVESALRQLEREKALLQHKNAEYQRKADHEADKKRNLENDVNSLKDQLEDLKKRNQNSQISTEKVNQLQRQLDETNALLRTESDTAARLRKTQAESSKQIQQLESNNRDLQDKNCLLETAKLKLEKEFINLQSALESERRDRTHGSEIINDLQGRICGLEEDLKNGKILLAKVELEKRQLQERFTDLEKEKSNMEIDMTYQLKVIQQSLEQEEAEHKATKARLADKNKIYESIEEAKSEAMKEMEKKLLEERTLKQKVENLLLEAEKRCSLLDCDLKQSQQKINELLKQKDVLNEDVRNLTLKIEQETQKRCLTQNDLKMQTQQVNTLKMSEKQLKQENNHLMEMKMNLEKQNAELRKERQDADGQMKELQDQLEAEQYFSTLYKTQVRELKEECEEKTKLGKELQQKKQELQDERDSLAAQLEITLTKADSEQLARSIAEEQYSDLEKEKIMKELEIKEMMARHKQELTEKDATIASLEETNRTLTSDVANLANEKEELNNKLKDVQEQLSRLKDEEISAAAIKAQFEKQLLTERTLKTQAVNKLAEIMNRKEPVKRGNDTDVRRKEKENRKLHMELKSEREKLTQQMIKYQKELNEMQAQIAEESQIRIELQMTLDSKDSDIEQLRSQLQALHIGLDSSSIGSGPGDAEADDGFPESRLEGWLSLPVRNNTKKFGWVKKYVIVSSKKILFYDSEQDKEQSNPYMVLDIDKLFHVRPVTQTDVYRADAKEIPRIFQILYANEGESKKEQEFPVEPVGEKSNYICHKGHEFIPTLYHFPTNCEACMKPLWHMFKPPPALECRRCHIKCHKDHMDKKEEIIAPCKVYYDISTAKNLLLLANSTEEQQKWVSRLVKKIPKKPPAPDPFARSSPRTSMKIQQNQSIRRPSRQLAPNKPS

For CN(C)CCN(Cc1ccc(Cl)cc1)C(=O)Nc1ccc2cnccc2c1 [compound 1], which IC50 is on record?
Its IC50 is 0.01 to 0.1 µM.

For CN(C)CCN(Cc1cccc(F)c1)C(=O)Nc1ccc2cnccc2c1 [compound 8], which IC50 is on record?
Its IC50 is 0.1 to 1 µM.

With COc1cccc(CN(CCN(C)C)C(=O)Nc2ccc3cnccc3c2)c1 [compound 3] as the compound, how does the IC50 read?
The IC50 was 0.1 to 1 µM.

CN(C)CCN(Cc1ccc(F)cc1)C(=O)Nc1ccc2cnccc2c1 [compound 2] was tested. Which IC50 did it give?
The IC50 was 0.01 to 0.1 µM.

O=C(Nc1ccc2cnccc2c1)N[C@@H](CO)c1ccccc1 [compound 6] was tested. Which IC50 did it give?
The IC50 was 0.01 to 0.1 µM.

Which IC50 does the source give for COc1cccc(CN(CCO)C(=O)Nc2ccc3cnccc3c2)c1 [compound 4] here?
Its IC50 is 0.1 to 1 µM.

same assay, conditions: Table 2; classes given as pIC50; ATP 250 μM

For NCC(NC(=O)Nc1ccc2cnccc2c1)c1ccc(F)cc1 (centres unmarked) [compound 25], which “ROCK IC50” value is on record?
The value was “++++ (pIC50>8.0)”.

CSc1ccc(CN(CCN)C(=O)Nc2ccc3cnccc3c2)cc1 [compound 17] was tested. Which “ROCK IC50” value did it give?
Its value is “+ (pIC50<6.0)”.

COC(=O)c1ccc(CN(CCN(C)C)C(=O)Nc2cccc3cnccc23)cc1 [compound 10] was tested. Which “ROCK IC50” value did it give?
The value was “+ (pIC50<6.0)”.

For NCC(NC(=S)Nc1ccc2cnccc2c1)c1ccc(F)cc1 (centres unmarked) [compound 26], which “ROCK IC50” value is on record?
Its value is “++++ (pIC50>8.0)”.

How did the “ROCK IC50” value turn out when COc1ccc(CN(CCN)/C(=N\C#N)Nc2ccc3cnccc3c2)cc1 [compound 37] was run?
The value was “++++ (pIC50>8.0)”.

With Cl.NCC(NC(=S)Nc1ccc2cnccc2c1)c1cccc2ccccc12 (centres unmarked) [compound 39] as the compound, how does the “ROCK IC50” value read?
Its value is “++++ (pIC50>8.0)”.

For CN(C)CCN(Cc1ccc(CO)cc1)C(=S)Nc1cccc2cnccc12 [compound 12], which “ROCK IC50” value is on record?
The value was “+ (pIC50<6.0)”.

COc1cccc(C(CN)NC(=S)Nc2ccc3cnccc3c2)c1 (centres unmarked) [compound 35] was tested. Which “ROCK IC50” value did it give?
The value was “++++ (pIC50>8.0)”.

For N#C/N=C(/Nc1ccc2cnccc2c1)N(CCN)Cc1ccccc1 [compound 36], which “ROCK IC50” value is on record?
The value was “++++ (pIC50>8.0)”.

How did the “ROCK IC50” value turn out when NCCN(Cc1ccc(O)cc1)C(=O)Nc1ccc2cnccc2c1 [compound 13] was run?
The value was “+ (pIC50<6.0)”.

Which “ROCK IC50” value does the source give for COC(=O)c1ccc(CN(CCN)C(=O)Nc2ccc3cnccc3c2)cc1 [compound 18] here?
Its value is “+ (pIC50<6.0)”.

NCCN(Cc1ccc(Cl)cc1)C(=S)Nc1ccc2cnccc2c1 [compound 31] was tested. Which “ROCK IC50” value did it give?
Its value is “++++ (pIC50>8.0)”.

NCCN(Cc1ccc(F)cc1)C(=O)Nc1cccc2cnccc12 [compound 20] was tested. Which “ROCK IC50” value did it give?
The value was “+ (pIC50<6.0)”.

With NCC(NC(=S)Nc1ccc2cnccc2c1)c1ccccc1 (centres unmarked) [compound 24] as the compound, how does the “ROCK IC50” value read?
The value was “++++ (pIC50>8.0)”.

same assay, conditions: Table 2; classes given as pIC50; ATP 250 μM; read-out: ROCK IC50

For NCCN(Cc1ccc(Cl)c(F)c1)C(=S)Nc1ccc2cnccc2c1 [compound 33], which IC50 is on record?
Its IC50 is 0.1 to 1 µM.

Which IC50 does the source give for N#C/N=C(/Nc1ccc2cnccc2c1)N(CCN)Cc1cccc(F)c1 [compound 29] here?
Its IC50 is 0.01 to 0.1 µM.

NCCN(Cc1cccc(F)c1)C(=S)Nc1ccc2cnccc2c1 [compound 28] was tested. Which IC50 did it give?
The IC50 was 0.1 to 1 µM.

How did the IC50 turn out when NCCN(Cc1ccccc1)C(=S)Nc1ccc2cnccc2c1 [compound 27] was run?
The IC50 was 0.1 to 1 µM.

For NCCN(Cc1ccccc1)C(=O)Nc1ccc2cnccc2c1 [compound 14], which IC50 is on record?
The IC50 was 0.1 to 1 µM.

How did the IC50 turn out when NCCN(Cc1ccc(F)cc1)C(=O)Nc1ccc2cnccc2c1 [compound 8] was run?
Its IC50 is 0.1 to 1 µM.

With NCCN(Cc1ccc(F)cc1)C(=S)Nc1ccc2cnccc2c1 [compound 19] as the compound, how does the IC50 read?
Its IC50 is 0.1 to 1 µM.

CN(C)CCN(Cc1ccc(F)cc1)C(=S)Nc1cccc2cnccc12 [compound 11] was tested. Which IC50 did it give?
The IC50 was 0.1 to 1 µM.

How did the IC50 turn out when CN(C)CCN(Cc1ccccc1)C(=O)Nc1cccc2cnccc12 [compound 6] was run?
The IC50 was 0.1 to 1 µM.

How did the IC50 turn out when NCCN(Cc1ccc(Br)cc1)C(=O)Nc1ccc2cnccc2c1 [compound 15] was run?
Its IC50 is 0.1 to 1 µM.

With N#C/N=C(/Nc1ccc2cnccc2c1)N(CCN)Cc1ccc(F)cc1 [compound 30] as the compound, how does the IC50 read?
Its IC50 is 0.01 to 0.1 µM.

For CC(c1ccc(F)cc1)N(CCN)C(=O)Nc1ccc2cnccc2c1 (centres unmarked) [compound 23], which IC50 is on record?
The IC50 was 0.01 to 0.1 µM.

Which IC50 does the source give for N#C/N=C(\Nc1ccc2cnccc2c1)N(CCN)Cc1ccc(Br)cc1 [compound 34] here?
Its IC50 is 0.01 to 0.1 µM.

Cc1ccc(CN(CCN)C(=S)Nc2ccc3cnccc3c2)cc1 [compound 32] was tested. Which IC50 did it give?
Its IC50 is 0.1 to 1 µM.

With CC(c1ccc(F)cc1)N(CCN)C(=O)Nc1ccc2cnccc2c1 (centres unmarked) [compound 22] as the compound, how does the IC50 read?
The IC50 was 0.1 to 1 µM.

NCCN(Cc1cccc(Cl)c1)C(=S)Nc1ccc2cnccc2c1 [compound 38] was tested. Which IC50 did it give?
The IC50 was 0.01 to 0.1 µM.

With NCCN(Cc1cccc(F)c1)C(=O)Nc1ccc2cnccc2c1 [compound 16] as the compound, how does the IC50 read?
The IC50 was 0.1 to 1 µM.

With CN(C)CCN(Cc1ccc(Cl)cc1)C(=O)Nc1cccc2cnccc12 [compound 7] as the compound, how does the IC50 read?
The IC50 was 0.1 to 1 µM.
